In US5395824A, “Dipeptide derivative and prophylactic and therapeutic agent for bone diseases containing the same” (Suntory Limited, priority 1991, dated 1995):

Key:
[1] = system: PTHrp(1-34)-Induced Hypercalcemia in Rats; experiment: Effect on PTHrp(1-34)-induced hypercalcemia in rats (p.o.); format: in vivo; conditions: male Wistar rats, 40 mg/kg p.o.; PTHrp(1-34) 5 nmole/kg i.v. four hours later; blood sample 1 hour after PTHrp; n = 5; PTHrp-only control 10.84 ± 0.11
Procedure: Some of the compounds shown in Table 1 were orally administered to 5-week-old male Wistar rats weighing from […] to 110 g (5 animals per group) at a dose of 40 mg/kg body weight. Four hours later, 5 nmole/kg of PTHrp(1-34) was intravenously injected into the animals. One hour after the administration of PTHrp(1-34)sequence ID No. 1, a blood sample was collected from each rat, and the blood calcium concentration was determined by the octocresolphthalein complexone method.

[2] = system: PTHrp(1-34)-Induced Hypercalcemia in Rats; experiment: Effect on PTHrp(1-34)-induced hypercalcemia in rats (i.p.); format: in vivo; conditions: male Wistar rats, 40 mg/kg i.p.; PTHrp(1-34) 5 nmole/kg i.v. two hours later; blood sample 1 hour after PTHrp; n = 5; PTHrp-only control 10.79 ± 0.13
Procedure: Some of the compounds shown in Table 1 were intraperitoneally administered to 5-week-old male Wistar rats each weighing 90 to 110 g (5 animals per group) at a dose of 40 mg/kg body weight. Two hours later, 5 nmole/kg of PTHrp(1-34) was intravenously injected. One hour after the administration of PTHrp(1-34), a blood sample was collected from each animal, and the blood calcium concentration was determined according to the same method as in Test Example 1.

| SMILES | Ca Conc. ± S.E. (average blood calcium concentration) [1] [mg/dL] | Ca Conc. ± S.E. (average blood calcium concentration) [2] [mg/dL] |
| --- | --- | --- |
| CCCCC(NC(=O)[C@H](CC(C)C)NC(C)=O)C(OCC)OCC (stereo partly drawn) [Example 22, N-Acetyl-L-leucine-(1-diethoxymethyl)pentylamide] | 10.05 ± 0.13 | 9.67 ± 0.18 |
| CCCCC(NC(=O)[C@H](CC(C)C)NC(=O)C(C)C)C(OC)OC (stereo partly drawn) [Example 23, N-Isobutyryl-L-leucine-(1-dimethoxymethyl)pentylamide] | 9.83 ± 0.13 |  |
| CC(C)CC(C=O)NC(=O)[C@H](CC(C)C)NC(=O)OCc1ccccc1 (stereo partly drawn) [Example 33, N-Benzyloxycarbonyl-L-leucine-(1-formyl-3-methyl)butylamide] | 10.26 ± 0.13 |  |
| CCCCC(NC(=O)[C@H](CC(C)C)NC(=O)OCc1ccccc1)C(OC)OC (stereo partly drawn) [Example 7, N-Benzyloxycarbonyl-L-leucine-(1-dimethoxymethyl)pentylamide] | 10.36 ± 0.11 | 10.29 ± 0.14 |
| CCCCC(NC(=O)[C@H](CC(C)C)NC(C)=O)C(OC)OC (stereo partly drawn) [Example 16, N-Acetyl-L-leucine-(1-dimethoxymethyl)pentylamide] | 9.91 ± 0.13 | 9.95 ± 0.14 |
| CCCCC(NC(=O)[C@H](CC(C)C)NC(=O)CCl)C(OC)OC (stereo partly drawn) [Example 24, N-Chloroacetyl-L-leucine-(1-dimethoxymethyl)pentylamide] | 10.12 ± 0.09 |  |
| CCCCC(NC(=O)[C@H](CC(C)C)NC(=O)OCc1ccccc1)C1SCCS1 (stereo partly drawn) [Example 13, N-Benzyloxycarbonyl-L-leucine-[1-(1,3-dithiolan-2-yl)]pentylamide] |  | 10.23 ± 0.05 |
| CCCCC(NC(=O)[C@H](CC(C)C)NC(=O)OCc1ccccc1)C1OCCO1 (stereo partly shown) [Example 9] | 10.41 ± 0.08 |  |
| CCCCC(NC(=O)[C@H](CC(C)C)NC(=O)CCC)C(OC)OC (stereo partly drawn) [Example 26, N-Butyryl-L-leucine-(1-dimethoxymethyl)pentylamide] | 9.85 ± 0.08 |  |
| CCCCC(NC(=O)[C@H](CC(C)C)NC(=O)OCc1ccccc1)C(OC(C)=O)OC(C)=O (stereo partly drawn) [Example 12, N-Benzyloxycarbonyl-L-leucine-(1-diacetoxymethyl)pentylamide] |  | 10.27 ± 0.08 |
| CCCCC(NC(=O)[C@H](CC(C)C)NC(=O)OCc1ccccc1)C(=O)C(=O)OCC (stereo partly drawn) [Example 1, N-Benzyloxycarbonyl-L-leueine-(1-ethoxalyl)pentylamide] |  | 10.33 ± 0.12 |
| CCCCC(NC(=O)[C@H](CC(C)C)NC(C)=O)C1OCCO1 (stereo partly drawn) [Example 17, N-Acetyl-L-leucine-[1-(1,3-dioxolan-2-yl)]pentylamide] | 9.97 ± 0.17 | 10.16 ± 0.05 |
| CCCCC(NC(=O)[C@H](CC(C)C)NC(=O)C(F)(F)F)C(OC)OC (stereo partly drawn) [Example 27, N-Trifluoroacetyl-L-leucine-(1-dimethoxymethyl)pentylamide] | 9.91 ± 0.13 |  |
| CCCCC(NC(=O)[C@H](CC(C)C)NC(C)=O)C1NCCS1 (stereo partly drawn) [Example 21, N-Acetyl-L-leucine-[1-(thiazolidine-2-yl)]pentylamide] | 9.98 ± 0.10 | 9.96 ± 0.07 |
| CCCCC(NC(=O)[C@H](CC(C)C)NC(=O)OCc1ccccc1)C1NCCS1 (stereo partly drawn) [Example 15, N-Benzyloxycarbonyl-L-leucine-[1-(thiazolidine-2-yl)]pentylamide] | 9.98 ± 0.13 | 10.13 ± 0.21 |
| CCCCC(NC(=O)[C@H](CC(C)C)NC(=O)CC)C(OC)OC (stereo partly drawn) [Example 25, N-Propionyl-L-leucine-(1-dimethoxymethyl)pentylamide] | 9.88 ± 0.09 |  |
